The record followed here is patent US10155764B2, “Therapeutic compounds and uses thereof” (GENENTECH, INC., priority 2014, dated 2018).

Structures are written as SMILES. Structures can show the parent of a compound that is named as a salt.

The target of this assay is PCAF719-832 bromodomain (Homo sapiens (Human), UniProt Q92831). The assay can be described thus: PCAF AlphaLisa binding assay. As to conditions: PCAF bromodomain 225 nM, biotinylated small molecule ligand 6 nM.
Sequence of PCAF719-832 bromodomain (Q92831 719-832): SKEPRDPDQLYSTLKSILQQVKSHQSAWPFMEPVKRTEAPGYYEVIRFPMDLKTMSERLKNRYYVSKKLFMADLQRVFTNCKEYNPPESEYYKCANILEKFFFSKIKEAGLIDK

Experimental: PCAF bromodomain binding and inhibition of the compounds disclosed herein was assessed by monitoring the engagement of biotinylated small molecule ligand (known to bind to the PCAF bromodomain) with the target using the AlphaLisa technology (Perkin-Elmer).

What is called IC50 is the concentration that gives 50% inhibition. Read a high IC50 as weaker potency. Consider `C[C@H](Nc1nn(C)c(=O)c2ccccc12)[C@H](c1ccccc1)N(C)C` (single isomer, unassigned) [Example 73A], for which the IC50 came out at 23 nM. The figure for `C[C@H](Nc1nn(C)c(=O)c2cccnc12)[C@H](c1ccc(S(=O)(=O)c2ccccc2)cc1)N(C)C` (single isomer, unassigned) [Example 74A] is 20 nM; for `C[C@H](Nc1nn(C)c(=O)c2cccnc12)[C@H](c1ccc(C(=O)OCc2ccccc2)cc1)N(C)C` [Example 87, benzyl 4-((1S,2S)-1-(dimethylamino)-2-((6-methyl-5-oxo-5,6-dihydropyrido[2,3-d]pyridazin-8-yl)amino)propyl)benzoate hydrochloride] it is 29 nM; for `CN(C)C(CNc1nn(C)c(=O)c2[nH]ccc12)c1ccccc1` (racemic) [Example 10, 4-((2-(dimethylamino)-2-phenylethyl)amino)-6-methyl-1H-pyrrolo[2,3-d]pyridazin-7(6H)-one] it is 240 nM.

`C[C@H](Nc1nn(C)c(=O)c2[nH]ccc12)[C@H](c1ccccc1)N(C)C` (single isomer, unassigned) [Example 71A]: the IC50 was more than 5000 nM. As for `CC(Nc1nn(C)c(=O)c2cccnc12)C(c1cn(C)nn1)N(C)C` (single isomer, unassigned) [Example 75, 8-((1-(dimethylamino)-1-(1-methyl-1H-1,2,3-triazol-4-yl)propan-2-yl)amino)-6-methylpyrido[2,3-d]pyridazin-5(6H)-one], the figure is 130 nM; as for `CN(C)[C@@H]1CCCC[C@@H]1Nc1nn(C)c(=O)c2cccnc12` (single isomer, unassigned) [Example 15B], 1500 nM. As for `C[C@H](Nc1nn(C)c(=O)c2ccccc12)[C@H](c1ccc(S(=O)(=O)c2ccccc2)cc1)N(C)C` [Example 55, 4-(((1S,2S)-1-(dimethylamino)-1-(4-(phenylsulfonyl)phenyl)propan-2-yl)amino)-2-methylphthalazin-1(2H)-one], the figure is 61 nM; as for `CN1CC(Nc2nn(C)c(=O)c3cccnc23)C1` [Example 18, 6-methyl-8-((1-methylazetidin-3-yl)amino)pyridol[2,3-d]pyridazin-5(6H)-one], 1500 nM. The figure for `CC[C@H](CNc1nn(C)c(=O)c2ccccc12)N(C)C` (single isomer, unassigned) [Example 39B] is 89 nM; for `Cc1cccc2c(=O)n(C)nc(N[C@@H](C)[C@H](c3ccccc3)N(C)C)c12` (single isomer, unassigned) [Example 70A] it is 36 nM. `CCC(CNc1nn(C)c(=O)c2ccccc12)N(C)C` (racemic) [Example 39, 4-((2-(dimethylamino)butyl)amino)-2-methylphthalazin-1(2H)-one] registered an IC50 of 180 nM. As for `COc1ccc2c(=O)n(C)nc(NCCN(C)C)c2c1` [Example 3, 4-((2-(dimethylamino)ethyl)amino)-6-methoxy-2-methylphthalazin-1(2H)-one], the figure is 410 nM; as for `CC(CN(C)C)Nc1nn(C)c(=O)c2ccccc12` (racemic) [Example 28, 4-((1-(dimethylamino)propan-2-yl)amino)-2-methylphthalazin-1(2H)-one], 66 nM; as for `C[C@H](Nc1nn(C)c(=O)c2ccccc12)[C@H](c1ccccn1)N(C)C` (single isomer, unassigned) [Example 60], 21 nM. As for `C[C@H](CNc1nn(C)c(=O)c2cccnc12)N(C)C` (single isomer, unassigned) [Example 7B], the figure is 72 nM; as for `CN(C)[C@H]1c2ccccc2C[C@H]1Nc1nn(C)c(=O)c2ccccc12` [Example 47B, 4-(((1S,2R)-1-(dimethylamino)-2,3-dihydro-1H-inden-2-yl)amino)-2-methylphthalazin-1(2H)-one], more than 5000 nM; as for `C/C=C/Cn1nc(NC(C)CN(C)C)c2ccccc2c1=O` (racemic) [Example 31, (E)-2-(but-2-en-1-yl)-4-((1-(dimethylamino)propan-2-yl)amino)phthalazin-1(2H)-one], 8100 nM.
